Experimental data taken from the supplement of paper PMC10307832.

Key:
Assay in all cases: relative viability (nuclei count vs DMSO), 5 days (fraction); higher = more cells survive
[1] = compound: C=CCc1cccc(/C=N/NC(=O)CN2CCN(Cc3ccccc3)CC2)c1O [PAC-1] + Cc1nc(Nc2ncc(C(=O)Nc3c(C)cccc3Cl)s2)cc(N2CCN(CCO)CC2)n1 [Dasatinib] (partner 0.075 µM)
Method in brief: (§1)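 Relative viability equals treated-well nuclei counts divided by vehicle-well nuclei counts. Counts came from 4× images of lung cancer cell lines grown in 1536-well plates for 5 days after pin-tool dosing on the day after seeding. Dosing used one drug alone or a fixed anchor-drug dose plus five library-drug doses (not always all listed) in √10 steps, and values are medians of duplicate plates.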

[2] = compound: C=CCc1cccc(/C=N/NC(=O)CN2CCN(Cc3ccccc3)CC2)c1O [PAC-1] + COc1cc2c(Oc3ccc(NC(=O)C4(C(=O)Nc5ccc(F)cc5)CC4)cc3F)ccnc2cc1OCCCN1CCOCC1 [Foretinib] (partner 0.25 µM)
Method in brief: as §1

[3] = compound: C=CC(=O)Nc1cc(-n2c(=O)ccc3cnc4ccc(-c5ccc(NS(C)(=O)=O)cc5)cc4c32)ccc1C [BMX-IN-1] + NC(=O)Nc1cc(-c2cccc(F)c2)sc1C(=O)N[C@H]1CCCNC1 [AZD7762] (partner 0.2 µM)
Method in brief: as §1

[4] = compound: C=CC(=O)N1CCC[C@@H](n2nc(-c3ccc(Oc4ccccc4)cc3)c3c(N)ncnc32)C1 [Ibrutinib] + Nc1nc2[nH]cc(CCc3ccc(C(=O)N[C@@H](CCC(=O)O)C(=O)O)cc3)c2c(=O)[nH]1 [Pemetrexed] (partner 0.2 µM)
Method in brief: as §1

Row | Cell Line | relative viability ([1]; first compound 0.02 µM) | relative viability ([1]; first compound 0.06325 µM) | relative viability ([1]; first compound 0.2 µM) | relative viability ([1]; first compound 2 µM) | relative viability ([2]; first compound 0.02 µM) | relative viability ([2]; first compound 0.06325 µM) | relative viability ([2]; first compound 0.2 µM) | relative viability ([2]; first compound 2 µM) | relative viability ([3]; first compound 0.02 µM) | relative viability ([3]; first compound 0.2 µM) | relative viability ([3]; first compound 0.6325 µM) | relative viability ([3]; first compound 2 µM) | relative viability ([4]; first compound 0.005 µM) | relative viability ([4]; first compound 0.01581 µM) | relative viability ([4]; first compound 0.05 µM) | relative viability ([4]; first compound 0.1581 µM) | relative viability ([4]; first compound 0.5 µM)
1 | H3255 | 0.361 | 0.288 | 0.284 | 0.33 | 0.925 | 0.814 | 0.883 | 0.89 | 0.93 | 0.866 | 1.05 | 0.874 | 0.511 | 0.553 | 0.456 | 0.557 | 0.407
2 | NCI-H2087 | 0.915 | 0.848 | 0.798 | 0.78 | 0.787 | 1.22 | 0.959 | 1.18 | 1.67 | 1.44 | 1.3 | 1.42 | 0.639 | 0.626 | 0.748 |  | 0.694
3 | BEN | 0.272 | 0.366 | 0.318 | 0.327 | 0.68 | 0.651 | 0.589 | 0.678 | 0.747 | 0.706 | 0.69 | 0.707 | 0.489 | 0.757 | 0.637 | 0.469 | 0.785
4 | NCI-H1755 | 0.426 | 0.446 | 0.384 | 0.443 | 0.948 | 0.976 | 0.948 | 0.949 | 0.543 | 0.491 | 0.453 | 0.466 | 0.42 | 0.481 | 0.475 | 0.456 | 0.516
5 | NCI-H1666 | 0.834 | 0.845 | 0.793 | 0.836 | 0.975 | 0.979 | 0.995 | 0.95 | 0.804 | 0.886 | 0.901 | 0.871 | 0.716 | 0.984 | 0.793 | 0.859 | 0.871
6 | NCI-H23 | 0.734 | 0.887 | 0.826 | 0.948 | 1.08 | 0.954 | 0.844 | 0.965 | 0.211 | 0.272 | 0.18 | 0.25 | 0.698 | 0.614 | 0.845 | 0.527 | 0.812
7 | PC-14 | 0.248 | 0.265 | 0.279 | 0.249 | 0.932 | 0.939 | 0.935 | 0.92 | 0.404 | 0.459 | 0.408 | 0.312 | 0.157 | 0.138 | 0.133 | 0.121 | 0.201
8 | NCI-H2342 | 0.302 | 0.311 | 0.295 | 0.302 | 1.15 | 1.04 | 1.03 | 1.05 | 0.454 | 0.484 | 0.492 | 0.447 | 0.455 | 0.806 | 0.618 | 0.723 | 0.715
9 | LCLC-97TM1 | 0.692 | 0.848 | 0.748 | 0.911 | 0.989 | 1 | 0.945 | 0.955 | 0.235 | 0.239 | 0.327 | 0.202 | 0.234 | 0.208 | 0.22 | 0.232 | 0.249
10 | HOP-62 | 0.665 | 0.68 | 0.623 | 0.641 | 1.1 | 1.13 | 1.1 | 1.17 | 0.606 | 0.627 | 0.724 | 0.65 | 0.415 | 0.32 | 0.434 | 0.446 | 0.879
11 | NCI-H1734 | 0.361 | 0.521 | 0.397 | 0.51 | 0.759 | 0.779 | 0.762 | 0.759 | 0.683 | 0.623 | 0.542 | 0.669 | 0.423 | 0.415 | 0.461 | 0.387 | 0.489
12 | NCI-H1651 | 0.391 | 0.446 | 0.394 | 0.393 | 0.796 | 0.72 | 0.735 | 0.917 | 0.557 | 0.503 | 0.527 | 0.422 | 0.436 | 0.661 | 0.572 | 0.479 | 0.558
13 | NCI-H2170 | 0.499 | 0.506 | 0.625 | 0.712 | 1.08 | 0.961 | 0.969 | 1.01 | 0.945 | 0.98 | 1.03 | 0.928 | 0.248 | 0.266 | 0.264 | 0.259 | 0.21
14 | LK-2 | 0.259 | 0.332 | 0.241 | 0.31 | 1.11 | 1.16 | 0.858 | 1.12 | 0.397 | 0.297 | 0.323 | 0.41 | 0.194 | 0.328 | 0.263 | 0.225 | 0.26
15 | NCI-H2347 | 0.28 | 0.3 | 0.312 | 0.362 | 0.786 | 0.771 | 0.601 | 1.3 | 0.787 | 0.833 | 0.712 | 0.945 | 0.454 | 0.4 | 0.434 | 0.462 | 0.463
16 | NCI-H460 | 0.524 | 0.477 | 0.464 | 0.521 | 1.08 | 0.915 | 0.954 | 0.959 | 0.725 | 0.566 | 0.768 | 0.735 | 0.0608 | 0.0607 | 0.0632 | 0.0616 | 0.1
